# Experimental data taken from patent US12686673B2 (Blueprint Medicines Corporation, priority 2020, dated 2026).
# Key:
# Type in all cases: cell-based
# [1] = biological target: HER2 (A775_G776insYVMA) expressing Ba/F3 stable cell line (Homo sapiens, UniProt P04626, DUP772-775, cells depend on it); experiment: Cellular proliferation (Alamar Blue) assay, HER2 A775_G776insYVMA Ba/F3; conditions: 72 hr, read-out: YVMA IC50
# Procedure: • 1. EGFR(D770_N771insSVD) expressing Ba/F3 stable cell line • 2. EGFR (A767_dupASV) expressing Ba/F3 stable cell line • 3. A431 cells • 4. EGFR (H773insNPH) expressing Ba/F3 stable cell line • 5. HER2 (A775_G776insYVMA) expressing Ba/F3 stable cell line Assay Procedure: • 1. Seed cells at 5000 for A431 and 15,000 cells for Ba/F3 in 100 μL/well in complete media (for A431: DMEM with […] and for Ba/F3 cells: RPMI with 10% FBS) in 96-well tissue culture plate. Leave outer wells without cells for background measurements. Incubate at 37 degree Celsius in […] humidified incubator for 16-18 hours. • 2. Add 0.025 ml of 5× concentration compound dilution or DMSO control. Final compound concentration range is 10-0.0005 μM prepared in 3-fold serial dilutions. Incubate for 72 hr at 37 degree Celsius in […] humidified incubator. • 3. Add 0.0125 ml Alamar Blue™ reagent to each well with multi-channel pipette and tap gently on each side of the plate to mix. Incubate for 3 hours at 37 degree Celsius in 5% CO2 humidified incubator. • 4. […] Data analysis was performed using XLfit 5.5.0.5.
# [2] = test system: A431 cells; experiment: Cellular proliferation (Alamar Blue) assay, A431; conditions: Homo sapiens, A-431; A431 cells, 72 hr, Alamar Blue; read-out: A431 IC50
# [3] = biological target: EGFR (A767_dupASV) expressing Ba/F3 stable cell line (Homo sapiens, UniProt P00533, DUP767-769, cells depend on it); experiment: Cellular proliferation (Alamar Blue) assay, EGFR A767_dupASV Ba/F3; conditions: 72 hr, read-out: A767 IC50
# Procedure, shortened: (§1)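 Steps: plate 15,000 Ba/F3 cells/well in RPMI/10% FBS; rest 16-18 h, 37 °C; add compound at final 10-0.0005 μM (3-fold series) or DMSO; incubate 72 hr; add Alamar Blue; read after 3 h.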
# [4] = biological target: EGFR(D770_N771insSVD) expressing Ba/F3 stable cell line (Homo sapiens, UniProt P00533, DUP768-770, cells depend on it); experiment: Cellular proliferation (Alamar Blue) assay, EGFR D770_N771insSVD Ba/F3; conditions: 72 hr, read-out: D770 IC50
# Procedure, shortened: as §1
# Sequence of HER2 (A775_G776insYVMA) expressing Ba/F3 stable cell line (P04626 with tags, fused parts or gaps DUP772-775): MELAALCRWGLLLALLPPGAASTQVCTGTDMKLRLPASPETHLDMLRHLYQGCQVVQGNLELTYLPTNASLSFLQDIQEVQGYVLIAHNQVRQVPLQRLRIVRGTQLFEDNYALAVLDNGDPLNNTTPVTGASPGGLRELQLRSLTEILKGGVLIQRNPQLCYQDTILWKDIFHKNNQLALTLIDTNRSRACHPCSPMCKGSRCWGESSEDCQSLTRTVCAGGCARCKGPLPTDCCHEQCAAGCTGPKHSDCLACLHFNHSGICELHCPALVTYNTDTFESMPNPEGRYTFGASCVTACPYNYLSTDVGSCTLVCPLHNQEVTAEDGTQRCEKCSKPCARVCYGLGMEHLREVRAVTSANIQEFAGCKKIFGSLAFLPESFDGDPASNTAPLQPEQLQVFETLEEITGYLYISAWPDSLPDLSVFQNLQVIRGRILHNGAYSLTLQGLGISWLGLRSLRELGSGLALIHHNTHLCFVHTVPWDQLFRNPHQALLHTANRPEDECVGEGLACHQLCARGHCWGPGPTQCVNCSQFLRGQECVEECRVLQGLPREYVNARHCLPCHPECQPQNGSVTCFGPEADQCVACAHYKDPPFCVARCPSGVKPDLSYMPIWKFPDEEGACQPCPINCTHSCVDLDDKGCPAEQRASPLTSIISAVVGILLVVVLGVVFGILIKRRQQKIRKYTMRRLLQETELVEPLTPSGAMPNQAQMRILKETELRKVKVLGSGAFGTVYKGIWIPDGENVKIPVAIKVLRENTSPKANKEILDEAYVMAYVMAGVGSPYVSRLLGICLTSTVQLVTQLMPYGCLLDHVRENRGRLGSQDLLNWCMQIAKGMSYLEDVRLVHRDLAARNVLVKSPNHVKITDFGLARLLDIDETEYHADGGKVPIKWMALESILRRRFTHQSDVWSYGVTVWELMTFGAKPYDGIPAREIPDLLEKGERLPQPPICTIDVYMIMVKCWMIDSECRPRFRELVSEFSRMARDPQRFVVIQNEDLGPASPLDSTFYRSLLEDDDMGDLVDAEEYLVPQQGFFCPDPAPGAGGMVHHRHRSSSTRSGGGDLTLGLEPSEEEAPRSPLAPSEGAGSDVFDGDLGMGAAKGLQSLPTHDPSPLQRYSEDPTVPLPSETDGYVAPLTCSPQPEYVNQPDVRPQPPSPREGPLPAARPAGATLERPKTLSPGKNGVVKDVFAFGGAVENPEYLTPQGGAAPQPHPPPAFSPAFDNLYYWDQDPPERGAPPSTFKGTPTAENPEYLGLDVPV
# Sequence of EGFR (A767_dupASV) expressing Ba/F3 stable cell line (P00533 with tags, fused parts or gaps DUP767-769): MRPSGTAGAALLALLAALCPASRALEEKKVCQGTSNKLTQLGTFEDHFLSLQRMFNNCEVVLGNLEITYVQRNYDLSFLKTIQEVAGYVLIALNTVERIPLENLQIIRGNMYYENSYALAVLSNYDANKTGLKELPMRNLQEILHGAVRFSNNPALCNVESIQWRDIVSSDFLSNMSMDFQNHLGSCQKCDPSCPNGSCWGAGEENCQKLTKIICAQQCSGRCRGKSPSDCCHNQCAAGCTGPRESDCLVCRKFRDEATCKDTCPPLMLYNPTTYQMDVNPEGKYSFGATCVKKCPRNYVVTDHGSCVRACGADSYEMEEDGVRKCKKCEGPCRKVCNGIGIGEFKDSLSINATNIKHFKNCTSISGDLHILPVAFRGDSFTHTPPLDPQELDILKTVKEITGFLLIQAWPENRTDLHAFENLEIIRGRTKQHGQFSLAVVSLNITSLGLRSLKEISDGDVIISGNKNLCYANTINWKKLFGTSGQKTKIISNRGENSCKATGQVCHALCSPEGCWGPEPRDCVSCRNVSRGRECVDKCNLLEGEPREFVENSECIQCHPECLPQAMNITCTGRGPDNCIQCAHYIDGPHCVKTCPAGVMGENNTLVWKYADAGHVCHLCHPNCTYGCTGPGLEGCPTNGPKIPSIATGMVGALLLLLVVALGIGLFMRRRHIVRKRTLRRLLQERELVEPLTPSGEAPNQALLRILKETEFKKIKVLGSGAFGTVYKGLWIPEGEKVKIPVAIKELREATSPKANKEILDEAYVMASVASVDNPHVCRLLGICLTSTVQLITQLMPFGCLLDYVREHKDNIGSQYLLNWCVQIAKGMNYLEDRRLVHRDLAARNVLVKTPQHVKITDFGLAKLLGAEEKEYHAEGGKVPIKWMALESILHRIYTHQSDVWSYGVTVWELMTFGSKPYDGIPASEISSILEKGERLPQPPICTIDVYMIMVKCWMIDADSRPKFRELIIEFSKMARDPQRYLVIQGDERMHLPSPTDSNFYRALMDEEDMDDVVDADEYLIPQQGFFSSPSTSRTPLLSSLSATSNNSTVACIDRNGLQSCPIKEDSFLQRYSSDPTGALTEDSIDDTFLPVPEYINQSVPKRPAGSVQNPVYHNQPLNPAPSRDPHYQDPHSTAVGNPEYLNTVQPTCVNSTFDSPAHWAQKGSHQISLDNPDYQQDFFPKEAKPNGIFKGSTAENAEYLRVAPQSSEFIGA
# Sequence of EGFR(D770_N771insSVD) expressing Ba/F3 stable cell line (P00533 with tags, fused parts or gaps DUP768-770): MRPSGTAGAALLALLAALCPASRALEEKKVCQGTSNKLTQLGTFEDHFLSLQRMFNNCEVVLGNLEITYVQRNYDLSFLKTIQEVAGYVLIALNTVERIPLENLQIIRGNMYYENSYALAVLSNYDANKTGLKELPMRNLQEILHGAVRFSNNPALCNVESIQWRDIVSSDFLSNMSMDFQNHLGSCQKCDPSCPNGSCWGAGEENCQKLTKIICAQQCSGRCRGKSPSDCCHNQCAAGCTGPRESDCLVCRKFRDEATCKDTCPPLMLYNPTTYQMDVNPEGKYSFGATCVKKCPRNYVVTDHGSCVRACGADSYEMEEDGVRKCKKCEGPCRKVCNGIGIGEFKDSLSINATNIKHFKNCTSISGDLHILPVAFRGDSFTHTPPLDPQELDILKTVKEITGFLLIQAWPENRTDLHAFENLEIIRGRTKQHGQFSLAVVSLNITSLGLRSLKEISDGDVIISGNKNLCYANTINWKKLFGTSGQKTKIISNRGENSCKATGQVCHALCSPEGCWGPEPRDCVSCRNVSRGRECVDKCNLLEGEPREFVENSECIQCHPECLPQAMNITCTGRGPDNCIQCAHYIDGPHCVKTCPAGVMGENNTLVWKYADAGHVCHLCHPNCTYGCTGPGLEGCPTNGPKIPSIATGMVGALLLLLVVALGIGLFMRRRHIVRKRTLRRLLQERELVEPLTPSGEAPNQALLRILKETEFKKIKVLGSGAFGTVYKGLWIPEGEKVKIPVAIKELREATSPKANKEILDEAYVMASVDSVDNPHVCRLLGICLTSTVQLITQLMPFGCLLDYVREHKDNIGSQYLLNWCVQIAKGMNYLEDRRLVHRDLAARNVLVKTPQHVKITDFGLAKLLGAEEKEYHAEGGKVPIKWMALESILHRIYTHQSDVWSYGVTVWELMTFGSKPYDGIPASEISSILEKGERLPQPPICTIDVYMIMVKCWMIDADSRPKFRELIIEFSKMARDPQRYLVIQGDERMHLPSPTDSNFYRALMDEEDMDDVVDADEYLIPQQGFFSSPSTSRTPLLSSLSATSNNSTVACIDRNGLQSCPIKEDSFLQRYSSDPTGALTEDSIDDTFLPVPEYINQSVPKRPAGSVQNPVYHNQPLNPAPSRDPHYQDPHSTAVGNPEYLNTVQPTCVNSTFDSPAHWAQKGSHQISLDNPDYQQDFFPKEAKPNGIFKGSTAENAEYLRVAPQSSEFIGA
GI50 [1],IC50 [2],GI50 [3],GI50 [4],SMILES
1810 nM,–,–,–,"C=CC(=O)Nc1ccc(F)c(Nc2nc(Nc3cnn(C)c3)ncc2-c2ccccc2Cl)c1 [Compound 150, N-(3-((5-(2-chlorophenyl)-2-((1-methyl-1H-pyrazol-4-yl)amino)pyrimidin-4-yl)amino)-4-fluorophenyl)acrylamide 2,2,2-trifluoroacetate]"
–,8150 nM,> 10000 nM,> 10000 nM,"C=CC(=O)Nc1ccc(F)c(Nc2nc(Nc3cnn(C)c3)ncc2N2CCOCC2)c1 [Compound 222, N-(4-fluoro-3-((2-((1-methyl-1H-pyrazol-4-yl)amino)-5-morpholinopyrimidin-4-yl)amino)phenyl)acrylamide]"
–,3920 nM,9700 nM,9030 nM,"C=CC(=O)Nc1cccc(Oc2nc(Nc3cnn(C)c3)ncc2N2CCN(C)CC2)c1 [Compound 223, N-(3-((2-((1-methyl-1H-pyrazol-4-yl)amino)-5-(4-methylpiperazin-1-yl)pyrimidin-4-yl)oxy)phenyl)acrylamide]"
–,> 10000 nM,> 10000 nM,> 10000 nM,"C=CC(=O)Nc1cccc(Nc2nc(Nc3cnn(C)c3)nc(NC)c2-c2ccc(C(F)(F)F)cc2)c1 [Compound 224, N-[3-({2-[(1-methyl-1H-pyrazol-4-yl)amino]-6-(methylamino)-5-[4-(trifluoromethyl)phenyl]pyrimidin-4-yl}amino)phenyl] prop-2-enamide]"
–,637 nM,2690 nM,1240 nM,"C=CC(=O)Nc1ccc(F)c(Nc2nc(Nc3cnoc3)ncc2-c2ccc(C(F)(F)F)cc2)c1 [Compound 225, N-[4-fluoro-3-({2-[(1,2-oxazol-4-yl)amino]-5-[4-(trifluoromethyl)phenyl]pyrimidin-4-yl}amino)phenyl]prop-2-enamide]"
–,1780 nM,1610 nM,793 nM,"C=CC(=O)Nc1ccc(F)c(Nc2nc(Nc3cnn(C)c3)ncc2C2=CCN(C)C2)c1 [Compound 226, N-[4-fluoro-3-({2-[(1-methyl-1H-pyrazol-4-yl)amino]-5-(1-methyl-2,5-dihydro-1H-pyrrol-3-yl)pyrimidin-4-yl}amino)phenyl]prop-2-enamide]"
–,6060 nM,7090 nM,> 10000 nM,"C=CC(=O)Nc1ccc(F)c(Nc2nc(Nc3cnn(C)c3)ncc2C2CCN(C)C2)c1 (centres unmarked) [Compound 227, N-[4-fluoro-3-({2-[(1-methyl-1H-pyrazol-4-yl)amino]-5-(1-methylpyrrolidin-3-yl)pyrimidin-4-yl}amino)phenyl]prop-2-enamide]"
–,222 nM,426 nM,318 nM,"C=CC(=O)Nc1cccc(N(C)c2nc(Nc3cnn(C)c3)ncc2-c2ccc(C(F)(F)F)cc2)c1 [Compound 229, N-(3-(methyl(2-((1-methyl-1H-pyrazol-4-yl)amino)-5-(4-(trifluoromethyl)phenyl)pyrimidin-4-yl)amino)phenyl)acrylamide]"
–,4210 nM,3900 nM,8550 nM,"C=CC(=O)Nc1ccc(F)c(Nc2nc(Nc3cnn(C)c3)nc3ccc(C(F)(F)F)cc23)c1 [Compound 231, N-(4-fluoro-3-((2-((1-methyl-1H-pyrazol-4-yl)amino)-6-(trifluoromethyl)quinazolin-4-yl)amino)phenyl)acrylamide]"
–,539 nM,1130 nM,724 nM,"C=CC(=O)Nc1ccc(F)c(Nc2nc(Nc3cccnc3)ncc2-c2ccc(C(F)(F)F)cc2)c1 [Compound 232, N-(4-fluoro-3-((2-(pyridin-3-ylamino)-5-(4-(trifluoromethyl)phenyl)pyrimidin-4-yl)amino)phenyl)acrylamide]"
–,1130 nM,948 nM,383 nM,"C=CC(=O)Nc1cccc(Oc2nc(Nc3ccc(CN(C)C)cc3)ncc2-c2ccc(C(F)(F)F)cc2)c1 [Compound 234, N-(3-((2-((4-((dimethylamino)methyl)phenyl)amino)-5-(4-(trifluoromethyl)phenyl)pyrimidin-4-yl)oxy)phenyl)acrylamide]"
–,1070 nM,980 nM,619 nM,"C=CC(=O)Nc1cccc(Oc2nc(Nc3cnn(CCN(C)C)c3)ncc2-c2ccc(C(F)(F)F)cc2)c1 [Compound 235, N-(3-((2-((1-(2-(dimethylamino)ethyl)-1H-pyrazol-4-yl)amino)-5-(4-(trifluoromethyl)phenyl)pyrimidin-4-yl)oxy)phenyl)acrylamide]"
–,> 10000 nM,> 10000 nM,> 10000 nM,"C=CC(=O)Nc1cccc(Oc2nc(NCCN(C)C)ncc2-c2ccc(C(F)(F)F)cc2)c1 [Compound 236, N-(3-((2-((2-(dimethylamino)ethyl)amino)-5-(4-(trifluoromethyl)phenyl)pyrimidin-4-yl)oxy)phenyl)acrylamide]"
–,9770 nM,9880 nM,10000 nM,"C=C=CC(=O)Nc1ccc(F)c(Nc2nc(Nc3cnn(C)c3)ncc2-c2ccc(C(F)(F)F)cc2)c1 [Compound 251, N-(4-fluoro-3-((2-((1-methyl-1H-pyrazol-4-yl)amino)-5-(4-(trifluoromethyl)phenyl)pyrimidin-4-yl)amino)phenyl)buta-2,3-dienamide]"
> 10000 nM,–,–,–,"C=CC(=O)Nc1ccc(F)c(Nc2nc(Nc3cnn(C)c3)ncc2C2CCOCC2)c1 [Compound 255, N-(4-fluoro-3-((2-((1-methyl-1H-pyrazol-4-yl)amino)-5-(tetrahydro-2H-pyran-4-yl)pyrimidin-4-yl)amino)phenyl)acrylamide]"
–,> 10000 nM,> 10000 nM,> 10000 nM,"Cn1cc(Nc2ncc(-c3ccc(C(F)(F)F)cc3)c(Nc3cc(N)ccc3F)n2)cn1 [Compound 257, N^4-(5-amino-2-fluorophenyl)-N^2-(1-methyl-1H-pyrazol-4-yl)-5-(4-(trifluoromethyl)phenyl)pyrimidine-2,4-diamine]"
222 nM,195 nM,–,–,"C=CC(=O)Nc1ccc(F)c(Nc2nc(Nc3cnn(C)c3)ncc2C2=CCOC2)c1 [Compound 261, N-(3-{[5-(2,5-dihydrofuran-3-yl)-2-[(1-methyl-1H-pyrazol-4-yl)amino]pyrimidin-4-yl]amino}-4-fluorophenyl) prop-2-enamide]"
4430 nM,–,–,–,"C=CC(=O)Nc1ccc(F)c(Nc2nc(Nc3cnn(C)c3)ncc2-c2cccc3ncccc23)c1 [Compound 262, N-(4-fluoro-3-((2-((1-methyl-1H-pyrazol-4-yl)amino)-5-(quinolin-5-yl)pyrimidin-4-yl)amino)phenyl)acrylamide]"
465 nM,145 nM,–,–,"C=CC(=O)Nc1ccc(F)c(Nc2nc(Nc3cn(C)nc3Cl)ncc2-c2ccccc2F)c1 [Compound 264, N-(3-((2-((3-chloro-1-methyl-1H-pyrazol-4-yl)amino)-5-(2-fluorophenyl)pyrimidin-4-yl)amino)-4-fluorophenyl)acrylamide]"
1380 nM,768 nM,–,–,"C=CC(=O)Nc1ccc(F)c(Nc2nc(Nc3cnn(C)c3)ncc2C2CCOC2)c1 (centres unmarked) [Compound 266, N-{4-fluoro-3-([2-[(1-methyl-1H-pyrazol-4-yl)amino]-5-(oxolan-3-yl)pyrimidin-4-yl}amino)phenyl] prop-2-enamide]"
> 10000 nM,5800 nM,–,–,"C=CC(=O)Nc1ccc(F)c(Nc2nc(Nc3cnn(C)c3)ncc2-c2ccccc2N(C)C)c1 [Compound 267, N-(3-((5-(2-(dimethylamino)phenyl)-2-((1-methyl-1H-pyrazol-4-yl)amino)pyrimidin-4-yl)amino)-4-fluorophenyl)acrylamide]"
–,20 nM,248 nM,111 nM,"Cn1cc(Nc2ncc(-c3ccc(CC(F)(F)F)cc3)c(Nc3cc(NC(=O)/C=C/CF)ccc3F)n2)cn1 [Compound 303, (E)-4-fluoro-N-(4-fluoro-3-((2-((1-methyl-1H-pyrazol-4-yl)amino)-5-(4-(2,2,2-trifluoroethyl)phenyl)pyrimidin-4-yl)amino)phenyl)but-2-enamide]"
–,790 nM,969 nM,1520 nM,"CN(C)C/C=C/C(=O)Nc1ccc(F)c(Nc2nc(Nc3cnn(C)c3)ncc2-c2ccc(Br)cc2)c1 [Compound 304, (E)-N-(3-((5-(4-bromophenyl)-2-((1-methyl-1H-pyrazol-4-yl)amino)pyrimidin-4-yl)amino)-4-fluorophenyl)-4-(dimethylamino)but-2-enamide]"
–,> 10000 nM,> 10000 nM,> 10000 nM,"C=CC(=O)Nc1ccc(F)c(Nc2nc(N(C)c3cnn(C)c3)ncc2-c2cc(F)cc(OC)c2)c1 [Compound 305, N-(4-fluoro-3-((5-(3-fluoro-5-methoxyphenyl)-2-(methyl(1-methyl-1H-pyrazol-4-yl)amino)pyrimidin-4-yl)amino)phenyl)acrylamide]"
